Results published in patent US10201625B2, “Radiolabelled octreotate analogues as PET tracers” (IMPERIAL COLLEGE, priority 2011, dated 2019).
Where two headings read alike, the source gives them in different places.

What was measured:
somatostatin receptor = target: T1, somatostatin receptor (Rattus norvegicus, UniProt P30680); assay: Competitive binding assay displacing [111In]-DTPA-Octreotide (OctreoScan) on AR42J tumour cells
T1 construct: endogenous in cells; host or cells: AR42J pancreatic tumour cells (whole cells)

[1] = Dynamic PET imaging of AR42J tumor bearing mice; conditions: female, BALB/c nu/nu athymic, mouse, in vivo, iv, total radioactivity; AR42J tumor, 60 min, i.v.; read-out: Tumor radiotracer uptake at 60 min by imaging
Text: (§1) Briefly, tail veins were cannulated under general anesthesia (isofluorane).

[2] = Direct counting of tissue radioactivity (γ-counter), AR42J tumor; parameters: species or system mice; conditions: female, BALB/c nu/nu athymic, mouse, in vivo, iv, total radioactivity; AR42J tumor, after 60 min PET scan; read-out: Tumor radiotracer uptake after 60 min by γ-counting
Description: (§2) Six to eight-week old female BALB/c nu/nu athymic mice were obtained from Harlan United Kingdom Ltd (Bicester, UK). […] Tumors were established by subcutaneous. injection of 100 μl of PBS containing 1×10^6 cells. […] All samples were weighed and their radioactivity directly determined using a Cobra II Auto-gamma counter (formerly Packard Instruments Meriden CT USA) applying a decay correction. The results were expressed as a percentage of the injected dose per gram (% ID/g).

AR42J tumor = conditions: same tumor model; cited from earlier work
[3] = Experimental: The octanol/PBS partition coefficients were determined using the shake flask method. Both solvents were presaturated with each other by shaking together for 5 min. To a solution of 500 μL of both octanol and PBS was added 20 μL of radiolabelled ligand in EtOH (n=3). The solutions mixtures were shaken in a rotamixer for 5 minutes. After equilibration the mixtures were centrifuged (10 min at 13,000 rpm) to achieve good separation. Samples from each layer (25 μL) were taken and measured in a γ counter and Log D was calculated according to the formula: log D=log(cpm in octanol layer/cpm in aqueous layer). Log D values were measured using the ^18F-labelled triazole. […] The receptor affinities for [^18F]1b-6b were determined using a competitive binding assay in AR42J tumours cells with [^111In]-OctreoScan as the labeled radiotracer.
AR42J tumor xenografts [4] = assay: Dynamic PET imaging of AR42J tumor bearing mice; conditions: mouse, in vivo; for Tumor radiotracer uptake at 60 min by imaging: iv
Text: as §1

AR42J tumor xenografts [5] = assay: Direct counting of tissue radioactivity (γ-counter), AR42J tumor; parameters: species or system mice; conditions: mouse, in vivo
Description: as §2

sstr-2 = sstr-2 (Homo sapiens, UniProt P30874); assay: Calcium flux FLIPR assay, agonist mode, sstr-2 expressing Chem-1 cells
[6] = cited from earlier work
[7] = read-out: Alkyne analogue (a) IC50
[8] = [19F]-triazole, read-out: Triazole analogue (b) IC50

T1 sequence (P30680 whole entry): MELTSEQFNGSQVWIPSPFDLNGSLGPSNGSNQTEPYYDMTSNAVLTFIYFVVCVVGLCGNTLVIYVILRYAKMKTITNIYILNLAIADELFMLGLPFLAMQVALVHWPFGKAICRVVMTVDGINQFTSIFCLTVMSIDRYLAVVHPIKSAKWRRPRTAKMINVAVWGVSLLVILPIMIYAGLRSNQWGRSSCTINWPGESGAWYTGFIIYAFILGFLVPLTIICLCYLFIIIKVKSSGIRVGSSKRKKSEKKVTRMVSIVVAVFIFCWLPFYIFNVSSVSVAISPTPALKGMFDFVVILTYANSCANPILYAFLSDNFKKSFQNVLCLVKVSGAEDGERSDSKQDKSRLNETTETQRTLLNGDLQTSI
sstr-2, sequence (P30874 whole entry): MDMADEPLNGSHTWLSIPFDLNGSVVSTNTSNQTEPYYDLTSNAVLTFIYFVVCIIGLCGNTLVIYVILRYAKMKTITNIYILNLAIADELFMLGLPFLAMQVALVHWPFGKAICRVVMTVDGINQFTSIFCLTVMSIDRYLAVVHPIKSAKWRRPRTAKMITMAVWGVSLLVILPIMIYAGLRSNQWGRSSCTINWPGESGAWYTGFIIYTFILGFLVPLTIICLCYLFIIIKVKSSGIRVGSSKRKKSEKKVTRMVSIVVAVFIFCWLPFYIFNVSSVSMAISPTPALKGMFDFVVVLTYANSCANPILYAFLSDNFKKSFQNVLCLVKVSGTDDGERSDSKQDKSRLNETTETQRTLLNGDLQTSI

C#CCCC(=O)NCCOCCOCCOCCOCCOCCOCCC(=O)N[C@H](Cc1ccccc1)C(=O)N[C@H]1CSSC[C@@H](C(=O)N[C@H](C(=O)O)[C@@H](C)O)NC(=O)[C@H]([C@@H](C)O)NC(=O)[C@H](CCCCN)NC(=O)[C@@H](Cc2c[nH]c3ccccc23)NC(=O)[C@H](Cc2ccc(O)cc2)NC1=O [2a, E-PEG-TOCA]
IC50 (somatostatin receptor; [7]): 5.1 ± 2.1 nM

C#CC(=O)NCC(=O)N[C@H](Cc1ccccc1)C(=O)N[C@H]1CSSC[C@@H](C(=O)N[C@H](C(=O)O)[C@@H](C)O)NC(=O)[C@H]([C@@H](C)O)NC(=O)[C@H](CCCCN)NC(=O)[C@@H](Cc2c[nH]c3ccccc23)NC(=O)[C@H](Cc2ccc(O)cc2)NC1=O [3a, G-TOCA]
IC50 (somatostatin receptor; [7]): 1.4 ± 0.1 nM

C#CCCC(=O)N[C@H](Cc1ccccc1)C(=O)N[C@H]1CSSC[C@@H](C(=O)N[C@H](C(=O)O)[C@@H](C)O)NC(=O)[C@H]([C@@H](C)O)NC(=O)[C@H](CCCCN)NC(=O)[C@@H](Cc2c[nH]c3ccccc23)NC(=O)[C@H](Cc2ccc(O)cc2)NC1=O [4a, E-TOCA]
IC50 (somatostatin receptor; [7]): 1.8 ± 0.8 nM

C#CC(=O)NCCC(=O)NCC(=O)N[C@H](Cc1ccccc1)C(=O)N[C@H]1CSSC[C@@H](C(=O)N[C@H](C(=O)O)[C@@H](C)O)NC(=O)[C@H]([C@@H](C)O)NC(=O)[C@H](CCCCN)NC(=O)[C@@H](Cc2c[nH]c3ccccc23)NC(=O)[C@H](Cc2ccc(O)cc2)NC1=O [5a, propynoyl-β-Ala-Gly-[Tyr^3]-Octreotate]
IC50 (somatostatin receptor; [7]): 1 ± 0.3 nM

C[C@@H](O)[C@H](NC(=O)[C@@H]1CSSC[C@H](NC(=O)[C@@H](Cc2ccccc2)NC(=O)CN2CCN(CC(=O)O)CCN(CC(=O)O)CCN(CC(=O)O)CC2)C(=O)N[C@@H](Cc2ccc(O)cc2)C(=O)N[C@H](Cc2c[nH]c3ccccc23)C(=O)N[C@@H](CCCCN)C(=O)N[C@@H]([C@@H](C)O)C(=O)N1)C(=O)O [[^68Ga]DOTA-TATE, [^68Ga]-DOTATATE, metal not drawn, reference compound]
tissue uptake per volume at 1 h [1]: 2.75 ± 0.11 %ID/mL | tissue uptake at 1 h [2]: 3.78 ± 0.32 %ID/g

C[C@@H](O)[C@@H]1NC(=O)[C@H](CCCCN)NC(=O)[C@@H](Cc2c[nH]c3ccccc23)NC(=O)[C@H](Cc2ccccc2)NC(=O)[C@@H](NC(=O)[C@@H](Cc2ccccc2)NC(=O)CN(CCN(CCN(CC(=O)[O-])CC(=O)O)CC(=O)[O-])CC(=O)[O-])CSSC[C@@H](C(=O)N[C@H](CO)[C@@H](C)O)NC1=O.[111In+3] [[^111In]-DTPA-octreotide]
Tumor uptake reported by Froidevaux et al. (AR42J tumor): 3.03±0.26 % ID/g

FET-G-PEG-TOCA [1b]
Log D [3]: −2.68 | Log D of 18F-triazole [3]: −2.68 | Tumor radiotracer uptake at 60 min by imaging (AR42J tumor xenografts [4]; 1 h): 5.36 ± 0.45 % ID/ml | Tumor radiotracer uptake after 60 min by γ-counting (AR42J tumor xenografts [5]; iv, 1 h): 8.29 ± 1.42 % ID/g

FET-G-TOGA [3b]
IC50 (somatostatin receptor; [8]): 4 ± 1.4 nM | Log D [3]: −1.82 | Log D of 18F-triazole [3]: −1.83 | Kidney uptake in words (AR42J tumor xenografts [4]): highest | Liver uptake in words (AR42J tumor xenografts [4]): highest liver uptake | Tumor uptake/localization in words (AR42J tumor xenografts [4]): highest tumor uptake | Tumor radiotracer uptake at 60 min by imaging (AR42J tumor xenografts [4]): 11.0 ± 1.49 % ID/ml | Tumor radiotracer uptake after 60 min by γ-counting (AR42J tumor xenografts [5]): 17.04 ± 2.76 % ID/g

FET-βAG-[W-c-(CTFTYC)K] [6b]
Log D [3]: −1.14 | Log D of 18F-triazole [3]: −1.14 | Kidney uptake in words (AR42J tumor xenografts [4]): low | Tumor radiotracer uptake at 60 min by imaging (AR42J tumor xenografts [4]; 1 h): 0.10 ± 0.05 % ID/ml | Tumor radiotracer uptake after 60 min by γ-counting (AR42J tumor xenografts [5]; iv, 1 h): 0.22 ± 0.12 % ID/g | Activity/affinity on sstr-2 in words (sstr-2): poor affinity

FETE-PEG-TOGA [2b]
IC50 (somatostatin receptor; [8]): 13.2 ± 7.8 nM | Log D [3]: −2.77 | Log D of 18F-triazole [3]: −2.77 | Liver uptake in words (AR42J tumor xenografts [4]): highest liver uptake | Tumor radiotracer uptake at 60 min by imaging (AR42J tumor xenografts [4]; 1 h): 5.14 ± 0.40 % ID/ml | Tumor radiotracer uptake after 60 min by γ-counting (AR42J tumor xenografts [5]; iv, 1 h): 9.78 ± 2.57 % ID/g

FETE-TOGA [4b]
IC50 (somatostatin receptor; [8]): 2.9 ± 1.3 nM | Log D [3]: −1.50 | Log D of 18F-triazole [3]: −1.5 | Tumor radiotracer uptake at 60 min by imaging (AR42J tumor xenografts [4]): 6.11 ± 1.46 % ID/ml | Tumor radiotracer uptake after 60 min by γ-counting (AR42J tumor xenografts [5]): 4.50 ± 1.51 % ID/g

[Tyr^3]octreotate
Biological half life [6]: 1.5-2 hours
